Blank lines part the entries; values can stand above or below the compound they belong to. Activity calls are given as the source filed them. No cut-off for these calls is given here.
Legend:
[1] = test system: NCI-H23; experiment: Antiproliferative activity against human NCI-H23 cells by SRB assay; format: functional
[2] = test system: MDA-MB-231; experiment: Antiproliferative activity against human MDA-MB-231 cells at 1 uM by SRB assay; format: functional
[3] = test system: MDA-MB-231; experiment: Antiproliferative activity against human MDA-MB-231 cells at 0.1 uM by SRB assay; format: functional
[4] = test system: NUGC-3; experiment: Antiproliferative activity against human NUGC3 cells at 3 uM by SRB assay; format: functional
[5] = test system: NCI-H23; experiment: Antiproliferative activity against human NCI-H23 cells at 0.3 uM by SRB assay; format: functional
[6] = test system: NUGC-3; experiment: Antiproliferative activity against human NUGC3 cells at 0.3 uM by SRB assay; format: functional
[7] = test system: NCI-H23; experiment: Antiproliferative activity against human NCI-H23 cells at 3 uM by SRB assay; format: functional
[8] = test system: PC-3; experiment: Antiproliferative activity against human PC3 cells at 1 uM by SRB assay; format: functional
[9] = test system: MDA-MB-231; experiment: Antiproliferative activity against human MDA-MB-231 cells at 3 uM by SRB assay; format: functional
[10] = test system: MDA-MB-231; experiment: Antiproliferative activity against human MDA-MB-231 cells by SRB assay; format: functional
[11] = test system: HCT-15; experiment: Antiproliferative activity against human HCT15 cells at 0.1 uM by SRB assay; format: functional
[12] = test system: MDA-MB-231; experiment: Antiproliferative activity against human MDA-MB-231 cells at 10 uM by SRB assay; format: functional
[13] = test system: PC-3; experiment: Antiproliferative activity against human PC3 cells at 10 uM by SRB assay; format: functional
[14] = test system: NUGC-3; experiment: Antiproliferative activity against human NUGC3 cells at 1 uM by SRB assay; format: functional
[15] = test system: ACHN; experiment: Antiproliferative activity against human ACHN cells at 3 uM by SRB assay; format: functional
[16] = test system: NCI-H23; experiment: Antiproliferative activity against human NCI-H23 cells at 10 uM by SRB assay; format: functional
[17] = test system: NUGC-3; experiment: Antiproliferative activity against human NUGC3 cells at 10 uM by SRB assay; format: functional
[18] = test system: NCI-H23; experiment: Antiproliferative activity against human NCI-H23 cells at 1 uM by SRB assay; format: functional
[19] = test system: NUGC-3; experiment: Antiproliferative activity against human NUGC3 cells at 0.1 uM by SRB assay; format: functional
[20] = test system: MDA-MB-231; experiment: Antiproliferative activity against human MDA-MB-231 cells at 0.3 uM by SRB assay; format: functional
[21] = test system: HCT-15; experiment: Antiproliferative activity against human HCT15 cells by SRB assay; format: functional
[22] = test system: ACHN; experiment: Antiproliferative activity against human ACHN cells at 10 uM by SRB assay; format: functional
[23] = test system: ACHN; experiment: Antiproliferative activity against human ACHN cells at 0.3 uM by SRB assay; format: functional
[24] = test system: PC-3; experiment: Antiproliferative activity against human PC3 cells at 3 uM by SRB assay; format: functional
[25] = biological target: Rho-related GTP-binding protein RhoB (Homo sapiens) (UniProt P62745); experiment: Transactivation of RhoB in human HeLa cells by luciferase reporter assay; format: cell-based
[26] = test system: PC-3; experiment: Antiproliferative activity against human PC3 cells at 0.1 uM by SRB assay; format: functional
[27] = test system: HCT-15; experiment: Antiproliferative activity against human HCT15 cells at 3 uM by SRB assay; format: functional
[28] = test system: NUGC-3; experiment: Antiproliferative activity against human NUGC3 cells by SRB assay; format: functional
[29] = test system: PC-3; experiment: Antiproliferative activity against human PC3 cells by SRB assay; format: functional
[30] = test system: PC-3; experiment: Antiproliferative activity against human PC3 cells at 0.3 uM by SRB assay; format: functional
[31] = test system: ACHN; experiment: Antiproliferative activity against human ACHN cells by SRB assay; format: functional
[32] = test system: ACHN; experiment: Antiproliferative activity against human ACHN cells at 0.1 uM by SRB assay; format: functional
[33] = test system: HCT-15; experiment: Antiproliferative activity against human HCT15 cells at 0.3 uM by SRB assay; format: functional
[34] = test system: HCT-15; experiment: Antiproliferative activity against human HCT15 cells at 10 uM by SRB assay; format: functional
[35] = test system: ACHN; experiment: Antiproliferative activity against human ACHN cells at 1 uM by SRB assay; format: functional
[36] = test system: HCT-15; experiment: Antiproliferative activity against human HCT15 cells at 1 uM by SRB assay; format: functional
[37] = test system: NCI-H23; experiment: Antiproliferative activity against human NCI-H23 cells at 0.1 uM by SRB assay; format: functional
[38] = biological target: Rho-related GTP-binding protein RhoB (Homo sapiens) (UniProt P62745); experiment: Inhibition of RhoB transactivation in human HeLa cells by luciferase reporter assay; format: cell-based

Rho-related GTP-binding protein RhoB (Homo sapiens), sequence (P62745 whole entry): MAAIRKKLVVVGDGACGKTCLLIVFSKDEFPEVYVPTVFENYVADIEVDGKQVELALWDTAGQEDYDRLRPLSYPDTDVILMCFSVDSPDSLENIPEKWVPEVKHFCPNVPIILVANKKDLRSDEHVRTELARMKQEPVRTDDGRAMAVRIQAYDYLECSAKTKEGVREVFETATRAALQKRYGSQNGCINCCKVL

GI50 [1]: 2150 nM
GI50 [10]: 2180 nM
GI50 [21]: 2560 nM
Activity [25]: Active
GI50 [29]: 600 nM
GI50 [31]: 3360 nM
SMILES: CCCCCCCCCCCCCCCC(=O)NCCC[N+](C)(C)C
growth, % of control at 1 µM [2]: 96.6%
growth, % of control at 0.1 µM [3]: 101%
growth, % of control at 3 µM [4]: 34.9%
growth, % of control at 0.3 µM [5]: 104%
growth, % of control at 0.3 µM [6]: 109%
growth, % of control at 3 µM [7]: 67.8%
growth, % of control at 1 µM [8]: 62.6%
growth, % of control at 3 µM [9]: 61.6%
growth, % of control at 0.1 µM [11]: 110%
growth, % of control at 10 µM [12]: 25.1%
growth, % of control at 10 µM [13]: -1.77%
growth, % of control at 1 µM [14]: 72.8%
growth, % of control at 3 µM [15]: 66%
growth, % of control at 10 µM [16]: 18.3%
growth, % of control at 10 µM [17]: 20.1%
growth, % of control at 1 µM [18]: 93%
growth, % of control at 0.1 µM [19]: 112%
growth, % of control at 0.3 µM [20]: 98.3%
growth, % of control at 10 µM [22]: 42.5%
growth, % of control at 0.3 µM [23]: 94.4%
growth, % of control at 3 µM [24]: 19.1%
growth, % of control at 0.1 µM [26]: 90.6%
growth, % of control at 3 µM [27]: 71.1%
GI50 [28]: 1070 nM
growth, % of control at 0.3 µM [30]: 85.2%
growth, % of control at 0.1 µM [32]: 97%
growth, % of control at 0.3 µM [33]: 104%
growth, % of control at 10 µM [34]: 26.1%
growth, % of control at 1 µM [35]: 91.8%
growth, % of control at 1 µM [36]: 97.4%
growth, % of control at 0.1 µM [37]: 106%

GI50 [1]: 1520 nM
GI50 [10]: 1070 nM
GI50 [21]: 800 nM
Activity [25]: Active
GI50 [29]: 420 nM
inhibition [38]: Active
GI50 [31]: 360 nM
SMILES: CCCCCCCCCCCCCCCCCC(=O)N(C)CC[N+](C)(C)C
growth, % of control at 1 µM [2]: 77.2%
growth, % of control at 0.1 µM [3]: 90.6%
growth, % of control at 3 µM [4]: 2.4%
growth, % of control at 0.3 µM [5]: 90.2%
growth, % of control at 0.3 µM [6]: 49%
growth, % of control at 3 µM [7]: 51.6%
growth, % of control at 1 µM [8]: 39.3%
growth, % of control at 3 µM [9]: 37%
growth, % of control at 0.1 µM [11]: 92.9%
growth, % of control at 10 µM [12]: 12.8%
growth, % of control at 10 µM [13]: -11.6%
growth, % of control at 1 µM [14]: 10.4%
growth, % of control at 3 µM [15]: 23.4%
growth, % of control at 10 µM [16]: 11.1%
growth, % of control at 10 µM [17]: -18.7%
growth, % of control at 1 µM [18]: 84.4%
growth, % of control at 0.1 µM [19]: 77.9%
growth, % of control at 0.3 µM [20]: 84.2%
growth, % of control at 10 µM [22]: -15.6%
growth, % of control at 0.3 µM [23]: 71.3%
growth, % of control at 3 µM [24]: 1.1%
growth, % of control at 0.1 µM [26]: 93.2%
growth, % of control at 3 µM [27]: 25.4%
GI50 [28]: 140 nM
growth, % of control at 0.3 µM [30]: 91.9%
growth, % of control at 0.1 µM [32]: 81.8%
growth, % of control at 0.3 µM [33]: 98.6%
growth, % of control at 10 µM [34]: 20.5%
growth, % of control at 1 µM [35]: 44.6%
growth, % of control at 1 µM [36]: 61.4%
growth, % of control at 0.1 µM [37]: 94.3%

GI50 [1]: 1020 nM
GI50 [10]: 1480 nM
GI50 [21]: 790 nM
Activity [25]: Active
GI50 [29]: 390 nM
GI50 [31]: 1560 nM
SMILES: CCCCCCCCCCCCCC(=O)NCCC[N+](C)(C)C
growth, % of control at 1 µM [2]: 80.6%
growth, % of control at 0.1 µM [3]: 83.4%
growth, % of control at 3 µM [4]: 28.7%
growth, % of control at 0.3 µM [5]: 96.4%
growth, % of control at 0.3 µM [6]: 73.2%
growth, % of control at 3 µM [7]: 39.8%
growth, % of control at 1 µM [8]: 44.6%
growth, % of control at 3 µM [9]: 58.1%
growth, % of control at 0.1 µM [11]: 83.5%
growth, % of control at 10 µM [12]: 19.1%
growth, % of control at 10 µM [13]: -22.8%
growth, % of control at 1 µM [14]: 46.7%
growth, % of control at 3 µM [15]: 58.1%
growth, % of control at 10 µM [16]: -15.6%
growth, % of control at 10 µM [17]: 14.8%
growth, % of control at 1 µM [18]: 80.9%
growth, % of control at 0.1 µM [19]: 84.9%
growth, % of control at 0.3 µM [20]: 81.2%
growth, % of control at 10 µM [22]: 25.4%
growth, % of control at 0.3 µM [23]: 77.2%
growth, % of control at 3 µM [24]: -4.97%
growth, % of control at 0.1 µM [26]: 85.2%
growth, % of control at 3 µM [27]: 33%
GI50 [28]: 430 nM
growth, % of control at 0.3 µM [30]: 87.3%
growth, % of control at 0.1 µM [32]: 83.3%
growth, % of control at 0.3 µM [33]: 82.5%
growth, % of control at 10 µM [34]: 14.7%
growth, % of control at 1 µM [35]: 77.1%
growth, % of control at 1 µM [36]: 71.6%
growth, % of control at 0.1 µM [37]: 99.4%

Source: ChEMBL document CHEMBL2380247, “Synthesis and biological evaluation of novel aliphatic amido-quaternary ammonium salts for anticancer chemotherapy: part II” (2013)
